Data from patent publication US20220267854A1, “EGFR AND ROS1 KINASE IN CANCER” (CELL SIGNALING TECHNOLOGY, INC., priority 2012, published 2022).

Tests used:
[1] = system: BaF3 cells expressing FIG-ROS1(L); assay: MTS cell growth assay, BaF3 expressing FIG-ROS1(L); format: cell-based
Experimental: (§1) BaF3 and Karpas 299 cells were obtained from DSMZ (Deutsche Sammlung von Mikroorganismen und Zellkulturen GmbH, Germany). BaF3 cells, which need interleukin-3 to survive, were maintained at 37° C. in RPMI-1640 medium (Invitrogen) with 10% fetal bovine serum (FBS) (Sigma) and 1.0 ng/ml murine IL-3 (R&D Systems). Karpas 299 cells (a lymphoma cell line) were grown in RPMI-1640 with 10% FBS.
(§2) BaF3 cells were transduced with retrovirus encoding FIG-ROS1(S), FIG-ROS1(L), or FLT-31TD (the Internal tandem duplication mutation in FLT3 causes AML leukemia), and selected for IL3 independent growth. Karpas 299 cells, which express NPM-ALK, was used as a positive control. Retroviruses were generated as previously described (see PCT Publication No. WO 2010/093928, incorporated by reference).
(§3) A MTS assay was performed using the CellTiter 96 Aqueous One Solution Reagent (Promega, Catalog No G3582). […] After 72 hours, 20 μl of the CellTiter 96 Aqueous One Solution Reagent was added into each well of a 96 well assay plate (flat bottom), and then 100 μl of cells grown with or without treatment. Media-only wells were used as controls. The 96 well plate was incubated for 1-4 hours at 37° C., and then viable cells were counted by reading the absorbance at 490 nm using a 96 well plate reader.

[2] = target: T1, FIG-ROS1(S) (Homo sapiens, UniProt P08922); assay: Western blotting, phosphorylation of FIG-ROS1(S) in BaF3 cells; format: cell-based
T1 construct: expressed in transfected cells; host or cells: BaF3 cells (retroviral transduction, selected for IL3-independent growth)
Text: (§4) All antibodies were from Cell Signaling Technology, Inc. (Danvers, Mass.)
(§5) Since ROS1, ALK, LTK, InsR, and IGFIR belong to the same family of tyrosine kinases, they may share similar structure in the kinase domain.

[3] = system: BaF3 cells expressing FIG-ROS1(S); assay: Cleaved caspase-3 flow cytometry (apoptosis), BaF3 FIG-ROS1(S); format: cell-based; conditions: FIG. 7
Text: (§6) The mechanism of death of the BaF3 and Karpas 299 cells was next assessed by measuring the percentage of cleaved-caspase 3 positive cells by flow cytometry assay using cleaved caspase-3 as a marker for apoptosis.

[4] = system: Karpas 299 cells (express NPM-ALK); conditions: FIG. 6, 0-1000 nM, 72 hours
Experimental: as §1, §2, §3

[5] = system: BaF3 cells transduced with FLT3/ITD
Experimental: as §1, §2, §3

[6] = system: STAT3, AKT, ERK, Shp2 in FIG-ROS1(S) expressing BaF3 cells; assay: Western blotting, downstream signaling molecules in FIG-ROS1(S) expressing BaF3 cells; format: cell-based
Text: as §4, §5

[7] = system: BaF3 cells expressing myc-tagged neomycin (Neo-Myc); assay: MTS cell growth assay, BaF3 expressing myc-tagged neomycin; format: cell-based; conditions: FIGS. 9A/9B; 0-1.0 uM; negative control BaF3 neo-myc
Experimental: as §1, §3

[8] = system: Karpas 299 cells; assay: Cleaved caspase-3 flow cytometry (apoptosis), Karpas 299; format: cell-based; conditions: FIG. 7
Text: as §6

[9] = system: STAT3, AKT, ERK, Shp2 in FIG-ROS1(L) expressing BaF3 cells; assay: Western blotting, downstream signaling molecules in FIG-ROS1(L) expressing BaF3 cells; format: cell-based
Text: as §4, §5

[10] = system: BaF3 cells expressing FIG-ROS1(S); assay: MTS cell growth assay, BaF3 expressing FIG-ROS1(S); format: cell-based
Experimental: as §1, §2, §3

[11] = system: BaF3 cells expressing FIG-ROS1(L); assay: Cleaved caspase-3 flow cytometry (apoptosis), BaF3 FIG-ROS1(L); format: cell-based; conditions: FIG. 7
Text: as §6

[12] = system: STAT3, AKT, ERK, Shp2 in BaF3 cells transduced with the FLT-3ITD retrovirus; format: cell-based; conditions: FLT-3ITD BaF3
Text: as §4, §5

[13] = target: FIG-ROS1(L) (Homo sapiens, UniProt P08922); assay: Western blotting, phosphorylation of FIG-ROS1(L) in BaF3 cells; format: cell-based
Text: as §4, §5

[14] = FIGS. 9A/9B, 0-1.0 uM, same concentration of each
[15] = FIG. 8, 0, 10, 50, or 100 nM for three hours
[16] = FIG. 10, 0, 0.1, 0.3, or 1.0 uM for three hours

COc1cc(N2CCC(N3CCN(C)CC3)CC2)ccc1Nc1ncc(Cl)c(Nc2ccccc2S(=O)(=O)C(C)C)n1 [TAE-684]
cellular growth response ([1]; FIG. 6, 0-1000 nM, 72 hours): stopped growing
cellular growth response, TAE-684 compared with crizotinib [1, 14]: more sensitive to TAE-684 than to crizotinib
phosphorylation of FIG-ROS1(S) [2, 15]: inhibited
mechanism of death, cleaved-caspase 3 positive cells [3]: die by apoptosis
cellular growth response [4]: stopped growing
cellular growth response ([5]; FIG. 6, 0-1000 nM, 72 hours, BaF3 FLT3/ITD): not susceptible
cellular growth response, compared with FIG-ROS1 BaF3 and Karpas 299 cells ([5]; FIGS. 9A/9B, 0-1.0 uM, negative control BaF3 FLT3-ITD): less sensitive
phosphorylation of STAT3, AKT, and ERK, and Shp2 [6, 15]: inhibited
cellular growth response, compared with FIG-ROS1 BaF3 and Karpas 299 cells [7]: less sensitive
mechanism of death, cleaved-caspase 3 positive cells [8]: did not die by apoptosis
phosphorylation of STAT3, AKT, and ERK, and Shp2 [9, 15]: inhibited
cellular growth response ([10]; FIG. 6, 0-1000 nM, 72 hours): stopped growing
cellular growth response, TAE-684 compared with crizotinib [10, 14]: more sensitive to TAE-684 than to crizotinib
mechanism of death, cleaved-caspase 3 positive cells [11]: die by apoptosis
phosphorylation of STAT3, AKT, and ERK, and Shp2 [12, 15]: not affected
phosphorylation of FIG-ROS1(L) [13, 15]: inhibited

C[C@@H](Oc1cc(-c2cnn(C3CCNCC3)c2)cnc1N)c1c(Cl)ccc(F)c1Cl [crizotinib]
phosphorylation of FIG-ROS1(S) [2, 16]: inhibited
phosphorylation of STAT3 and ERK [6, 16]: inhibited
phosphorylation of STAT3 and ERK [9, 16]: inhibited
phosphorylation of STAT3 and ERK [12, 16]: not affected
phosphorylation of FIG-ROS1(L) [13, 16]: inhibited
